Measurements as given in patent US4973587A, “3-arylcarbonyl-1-aminoalkyl-1H-indole-containing antiglaucoma method” (Sterling Drug Inc., priority 1990, dated 1990).

Legend:
[1] = target: T1, cannabinoid receptor (CP 55940 binding sites) (Rattus norvegicus, UniProt P20272); assay: CP55490 binding assay (CP); conditions: for IC50: CP55490 binding assay; for inhibition at 1 µM: read-out: CP % I
T1 construct: from tissue
Text: (§1) Med. Assoc. 217, 1392 (1971)]. […] Opth 7, 921-923 (1975); Green and Pederson, Effect of delta-9 Tetrahydrocannabinol on Aqueous Dynamics and Ciliary Body Permeability in the Rabbit Eye., Exptl. Eye Research 15, 499-507 (1973); Colasanti, Craig and Allara, Intraocular Pressure, Ocular Toxicity and Neurotoxicity after Administration of Cannabinol or Cannibigerol, Exptl. Eye Research 39, 252-259 (1984)]. Similarly, synthetic cannabinoids also reduce intraocular pressure [Green, Symunds, Oliver and Elijah, Intraocular Pressure Following Systemic Administration of Cannabinoids, Curr. Eye Research 2, 247-253 (1982); Tiedeman, Shields, Weber, Crow, Coccetto, Harris and Howes, Ophthalmology., 88, 270-277 (1981); Colasanti et al., supra]. Cannabinoid receptor binding sites can be defined as those to which radio-labelled 4-(1,1-dimethylheptyl)-2,3'-dihydroxy-6'alpha-(3-hydroxypropyl)-1',2',3',4',5',6'-hexahydrobiphenyl (CP 55940) binds in a specific and saturable manner, and the binding sites are heterogeneously distributed in the brain [Devane, Dysarz, Johnson, Melvin and Howlett, Determination and Characterization of a Cannabinoid Receptor in Rat Brain, Molecular Pharm. 34, 605-613 (1988)]. Natural and synthetic cannabinoids and representative examples of the compounds of the present invention bind to CP 55940 binding sites. […] It is believed that agonist activity at the cannabinoid receptor mediates the anti-glaucoma actions of cannabinoids, and that agonist activity at this receptor correlates with ocular pressure lowering actions in man.

mouse vas deferens = mouse vas deferens test (MVD); format: cell-based; conditions: inhibition of contractions in mouse vas deferens preparation in vitro, active at 5.0 μM or less
Text: as §1

intraocular pressure = conditions: topical application or systemic injection; cited from earlier work

T1 sequence (P20272 whole entry): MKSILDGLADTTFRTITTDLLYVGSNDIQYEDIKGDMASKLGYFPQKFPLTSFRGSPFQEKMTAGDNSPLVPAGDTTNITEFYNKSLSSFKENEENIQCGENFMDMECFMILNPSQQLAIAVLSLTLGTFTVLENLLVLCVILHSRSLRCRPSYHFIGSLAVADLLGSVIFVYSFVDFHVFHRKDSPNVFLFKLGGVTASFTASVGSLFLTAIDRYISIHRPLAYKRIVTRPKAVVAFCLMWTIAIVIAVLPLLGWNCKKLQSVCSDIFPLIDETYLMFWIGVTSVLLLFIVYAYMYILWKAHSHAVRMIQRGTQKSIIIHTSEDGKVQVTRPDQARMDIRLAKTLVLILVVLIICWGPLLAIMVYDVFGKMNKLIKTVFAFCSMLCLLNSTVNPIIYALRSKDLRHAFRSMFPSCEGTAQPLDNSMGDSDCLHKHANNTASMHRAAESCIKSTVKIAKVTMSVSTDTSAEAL

Row | SMILES | IC50 (mouse vas deferens; Mus musculus) | also measured
1 | Cc1c(C(=O)c2csc3ccccc23)c2ccccc2n1CCN1CCOCC1 [Example 1Q] | 0.018 µM | IC50 [1]: ~0.05 µM
2 | COc1ccc(C(=O)c2c(C)n(CCN3CCOCC3)c3ccccc23)cc1 [Example 1B] | – | IC50 [1]: 3 to 10 µM; IC50 (mouse vas deferens): 0.5 µM
3 | COc1ccc(C(=O)c2c(C)n(CCN3CCOCC3)c3ccccc23)c(OC)c1OC [Example 1CA] | 0.07 µM | inhibition at 1 µM [1]: 70%
4 | Cc1c(C(=O)c2cccc3ccccc23)c2ccccc2n1CCN1CCOCC1 [Example 1AP] | 0.015 µM | IC50 [1]: 0.051 µM
5 | Cc1c(C(=O)c2cccc3ccccc23)c2ccccc2n1CCN1CCCC(O)C1 (stereo not drawn) [Example 3D] | 0.236 µM | IC50 [1]: 0.2 to 0.5 µM
6 | COc1ccc(C(=O)c2cn(CCN3CCOCC3)c3ccccc23)cc1 [Example 1A, 3-(4-methoxybenzoyl)-1-[2-(4-morpholinyl)ethyl]1H-indole methanesulfonate monohydrate] | 0.1 µM | inhibition at 1 µM [1]: 59%
7 | O=C(c1cccc2ccccc12)c1cn(CCN2CCOCC2)c2ccccc12 [Example 2Z] | 0.006 µM | IC50 [1]: 0.088 µM
8 | COc1ccc(C(=O)c2c(C)n(CCN3CCOCC3)c3cc(Cl)ccc23)cc1 [Example 1L] | 0.54 µM | –
9 | O=C(c1ccccc1)c1cn(CCN2CCOCC2)c2ccccc12 [Example 1AF] | 1.1 µM | –
10 | Cc1c(C(=O)c2ccc(N)cc2)c2ccccc2n1CCN1CCOCC1 [Example 4B, 2-methyl-3-(4-aminobenzoyl)-1-[2-(4morpholinyl)ethyl]-1H-indole] | 0.52 µM | –
11 | O=C(c1cccc2occc12)c1cn(CCN2CCOCC2)c2ccccc12 [Example 2BJ] | 0.007 µM | –
12 | O=C(c1cccc2ccccc12)c1c(Cl)n(CCN2CCOCC2)c2ccccc12 [Example 2BG] | 0.006 µM | –
13 | Cc1c(C(=O)c2ccc(C#N)c3ccccc23)c2ccccc2n1CCN1CCOCC1 [Example 7A, 2-methyl-3-(4-cyano-1-naphthylcarbonyl)-1-[2-(4-morpholinyl)ethyl]-1H-indole] | 0.014 µM | –
14 | Cc1ccc(C(=O)c2cn(CCN3CCOCC3)c3ccccc23)c2ccccc12 [Example 2CB] | 0.003 µM | –
15 | COc1ccc(C(=O)c2cn(C(C)CN3CCOCC3)c3ccccc23)cc1 (stereo not drawn) [Example 2AU] | 3.7 µM | –
16 | O=C(c1cn(CCN2CCOCC2)c2ccccc12)c1cccc2ccoc12 [Example 2BL] | 0.004 µM | –
17 | CCCCCc1cc(O)c2c(c1)OC(C)(C)[C@@H]1CCC(C)=C[C@@H]21 [delta-9 tetrahydrocannabinol] | – | intraocular pressure (intraocular pressure): reduces intraocular pressure
18 | COc1ccc(C(=O)c2c(Cl)n(CCN3CCOCC3)c3ccccc23)cc1 [Example 2Q] | 0.176 µM | –

Row | SMILES | IC50 (mouse vas deferens; Mus musculus) | also measured
19 | COc1cccc(C(=O)c2c(C)n(CCN3CCOCC3)c3ccccc23)c1OC [Example 1BP] | 0.26 µM | –
20 | Cc1c(C(=O)c2ccnc3ccccc23)c2ccccc2n1CCN1CCOCC1 [Example 2BE] | 0.115 µM | –
21 | Cc1c(C(=O)c2ccc3ccccc3n2)c2ccccc2n1CCN1CCOCC1 [Example 2BD] | 0.099 µM | –
22 | COc1ccc(C(=O)c2c(C)n(CCN3CCOCC3)c3ccccc23)cc1OC [Example 1AB] | 0.068 µM | –
23 | Cc1c(C(=O)Cc2ccccc2)c2ccccc2n1CCN1CCOCC1 [Example 2BM] | 0.174 µM | –
24 | Cc1ccc2c(C(=O)c3cccc4ccccc34)c(C)n(CCN3CCOCC3)c2c1 [Example 1BV] | 0.015 µM | –
25 | COc1ccc(C(=O)c2cn(CCCN3CCOCC3)c3ccccc23)cc1 [Example 1BZ] | 4.3 µM | –
26 | COc1ccc(C(=S)c2c(C)n(CCN3CCOCC3)c3ccccc23)cc1 [Example 9, 2-methyl-3-(4-methoxyphenylthiocarbonyl)-1-[2-(4-morpholinyl)-ethyl]-1H-indole] | 0.11 µM | –
27 | Cc1c(C(=O)c2ccccc2)c2ccccc2n1C(C)CN1CCOCC1 (stereo not drawn) [Example 1AK] | 0.9 µM | –
28 | CCC(CN1CCOCC1)n1c(C)c(C(=O)c2ccc3ccccc3c2)c2ccccc21 (stereo not drawn) [Example 2AV] | 0.091 µM | –
29 | Cc1c(C(=O)c2ccccc2F)c2ccccc2n1C(C)CN1CCOCC1 (stereo not drawn) [Example 2C] | – | IC50 (mouse vas deferens): 0.49 µM
30 | Cc1c(C(=O)c2ccc3c(c2)OCO3)c2ccccc2n1CCN1CCOCC1 [Example 1-O] | 1.3 µM | –
31 | Cc1cccc2c(C(=O)c3ccccc3)cn(C(C)CN3CCOCC3)c12 (stereo not drawn) [Example 2H] | 0.177 µM | –
32 | O=C(c1ccc2ccoc2c1)c1cn(CCN2CCOCC2)c2ccccc12 [Example 2BK] | 0.04 µM | –
33 | COc1ccc(C(=O)c2c(C)n(CCCN3CCCC3)c3ccccc23)cc1 [Example 1CJ] | > 10 µM | –
34 | Cc1c(C(=O)c2ccccc2Cl)c2ccccc2n1CCN1CCOCC1 [Example 2CH] | 0.091 µM | –
35 | COc1ccc(C(=O)c2cn(CCN3CCOCC3)c3c(O)cccc23)cc1 [Example 5C, 7-hydroxy-3-(4-methoxybenzoyl)-1-[2-(4-morpholinyl)ethyl]-1H-indole] | 0.4 µM | –
